Laboratory results taken from patent US9540649B2, “Method for opening tight junctions” (The Provost, Fellows and Scholars of the College of the …, priority 2007, dated 2017).
Entries after “also recorded” stand apart in the source; their conditions may differ.

Columns and labels:
Type in all cases: in vivo, C57/Bl6 mice
claudin-5 = assay: Western blot analysis of claudin-5 expression in brain after hydrodynamic tail vein delivery of siRNA
Description: (§1) Rapid high pressure, high volume tail vein injections were carried out (Kiang et al., 2005). Wild type C57/Bl6 mice of weight 20-30 g were individually restrained inside a 60-ml volume plastic tube. The protruding tail was warmed for 5 minutes prior to injection under a 60-W lamp and the tail vein clearly visualized by illumination from below. 20 micrograms of targeting siRNA, or non-targeting siRNA made up with PBS to a volume in mls of 10% of the body weight in grams or PBS alone, was injected into the tail vein at a rate of 1 ml/sec using a 26-gauge (26 G 3/8) needle. After 24, 48, 72 hours and 1 week, protein was isolated from total brain tissue by crushing brains to a fine powder in liquid N2 and subsequently using lysis buffer containing 62.5 mM Tris, 2% SDS, 10 mM Dithiothreitol, 10 μl protease inhibitor cocktail/100 ml (Sigma Aldrich, Ireland). The homogenate was centrifuged at 10,000 g for 20 mins @4° C., and the supernatant was removed for claudin-5 analysis.
Briefly, protein samples were separated on 12% SDS-PAGE gels and transferred to nitrocellulose membrane overnight using a wet electroblot apparatus. Efficiency of protein transfer was determined using Ponceau-S solution (Sigma Aldrich, Ireland). Non-specific binding sites were blocked by incubating the membrane at room temperature with 5% non-fat dry skimmed milk in Tris-buffered saline (TBS) (0.05 M Tris, 150 mM NaCl, pH 7.5) for 2 hours. Membranes were briefly washed with TBS, and incubated with polyclonal rabbit anti-claudin-5 (Zymed Laboratories, San Francisco, Calif.) (1:500) or polyclonal rabbit anti-β-actin (Abcam, Cambridge, UK) (1:1000). Antibodies were incubated with membranes overnight at 4° C. Membranes were washed with TBS, and incubated with a secondary anti-rabbit (IgG) antibody with Horse-Radish-Peroxidase (HRP) conjugates (1:2500), for 3 hours at room temperature. Immune complexes were detected using enhanced chemiluminescence (ECL).

claudin-5 mRNA = assay: Real-time RT-PCR analysis of claudin-5 mRNA in brain post-injection of siRNA
Description: as §1
At the same time points post-delivery of siRNA total RNA was isolated from brains using Trizol (Invitrogen). RNA was then treated with RNase-free DNase (Promega, Madison, Wis., USA) and then chloroform extracted, isopropanol precipitated, washed with 75% RNA grade ethanol and resuspended in 100 μl RNase-free water.
RNA was analyzed by real-time RT-PCR using a Quantitect Sybr Green Kit as outlined by the manufacturer (Qiagen-Xeragon) on a LightCycler (Roche Diagnostics, Lewes, UK) under the following conditions: 50° C. for 20 min; 95° C. for 15 min; 38 cycles of 94° C. for 15 s, 57° C. for 20 s, 72° C. for 10 s.
cDNA fragments were amplified from claudin-5 and β-actin for each RNA sample a minimum of four times. Results were expressed as a percentage of those from the similarly standardized appropriate control experiment. The reciprocal values compared to the non-targeting control siRNA gave percentage suppression of claudin-5 expression. Mean values, standard deviations, and pooled t tests were calculated using GraphPad Prism©. Differences were deemed statistically significant at P<0.05.

occludin = assay: Occludin expression following suppression of claudin-5 (Western blot, immunohistochemistry); details: all time points post-delivery of claudin-5 siRNA
BBB = BBB permeability to Hoechst H33342 (562 Da) and FD-4 (4,400 Da) co-perfusion, brain sections; details: for extravasation of FD-4 (4,400 Da) into brain parenchyma: any time point following siRNA injection
Description: In order to determine the permeability of brain and retinal microvessels to a molecule of 562 Daltons, mice were perfused through the left ventricle with 500 μl/g body weight of PBS containing 100 μg/ml Hoechst stain H33342 (Sigma Aldrich, Ireland) and 1 mg/ml FITC-Dextran-4 (FD-4) 24, 48, 72 hours and 1 week post-hydrodynamic delivery of claudin-5 siRNA. Following perfusion, the whole brain was dissected and placed in 4% PFA pH 7.4 overnight at 4° C. and subsequently washed 4×15 mins with PBS. Brains were then embedded in 4% agarose and 50 μm sections were cut using a Vibratome®. Whole eyes were removed and fixed with 4% PFA, and following washing with PBS and cryoprotection using a sucrose gradient, 12 μm cryosections were cut using a cryostat. Following analysis of retinal cryosections with an Olympus FluoView™ FV1000 Confocal microscope, images were oriented correctly using Adobe® Photoshop®.

claudin-5 siRNA: siRNA, sense CGUUGGAAAUUCUGGGUCUUU (SEQ ID NO: 1), antisense AGACCCAGAAUUUCCAACGUU (SEQ ID NO: 2) (listed as RNA, chemistry not given here)
claudin-5 expression, Western blot, brain (claudin-5; 24 hours post delivery of 20 μg siRNA, vs un-injected, PBS and non-targeting siRNA controls): decrease in expression; also recorded: markedly decreased | claudin-5 expression, Western blot, brain (claudin-5; 48 hours post delivery of 20 μg siRNA, vs controls): suppression was also evident | claudin-5 expression, Western blot, brain (claudin-5; 48 hours post delivery of 20 μg siRNA, vs controls, listed as CLDN5 siRNA): significant decreases in Claudin-5 expression | claudin-5 expression, Western blot, brain (claudin-5; 48 hours post delivery of 20 μg siRNA, vs controls, listed as siRNA targeting claudin-5): maximum suppression | claudin-5 expression, Western blot, brain (claudin-5; 72 hours post delivery of 20 μg siRNA, vs controls, listed as CLDN5 siRNA): levels of expression appeared similar to those observed in the control groups | time at which claudin-5 expression returns to normal, Western data (claudin-5; after injection): returning to normal between 72 hours and 1 week | claudin-5 mRNA level, RT-PCR, brain (claudin-5 mRNA; 1 week post-injection, vs non-targeting control): not significantly changed | claudin-5 mRNA levels suppressed with respect to the non-targeting control siRNA (claudin-5 mRNA; 24 hours post-injection): up to 95% | claudin-5 mRNA level, RT-PCR, brain (claudin-5 mRNA; 24 hours post-injection, vs control groups): significantly decreased | claudin-5 mRNA level, RT-PCR, brain (claudin-5 mRNA; 24 hours post-injection, vs control groups, listed as siRNA targeting claudin-5): significant decrease | claudin-5 mRNA level, RT-PCR, brain (claudin-5 mRNA; 48 hours post-injection, vs control groups): showing suppression | claudin-5 mRNA level, RT-PCR, brain (claudin-5 mRNA; 72 hours post-injection, vs non-targeting control): not significantly changed | occludin expression, Western blot (occludin): remain un-changed at all time points | extravasation of Hoechst H33342 (562 Da) from brain microvessels (BBB; 24 hours and 48 hours post delivery): distinct staining of nuclei in surrounding neural and glial cells | extravasation of Hoechst H33342 (562 Da) from brain microvessels (BBB; 24 hours and 48 hours post delivery, listed as siRNA targeting claudin-5): extravasation of Hoechsct was observed; also recorded: crossed the BBB | extravasation of Hoechst H33342 (562 Da) from brain microvessels (BBB; 72 hours or 1 week post-injection): not evident | extravasation of FD-4 (4,400 Da) into brain parenchyma (BBB): No extravasation of FD-4 | extravasation of FD-4 (4,400 Da) into brain parenchyma (BBB; listed as siRNA targeting claudin-5): no extravasation was evident; also recorded: failed to do so
